Reference: paper PMC7644958, “Estimates of RelSeq, Mesh1, and SAHMex Hydrolysis of (p)ppGpp and (p)ppApp by Thin Layer Chromatography and NADP/NADH Coupled Assays” (Frontiers in Microbiology, 2020)

Target: T1, MESH1 (Homo sapiens, UniProt Q8N4P3)
T1 construct: gene HDDC3; pET28 derivative, expressed in E. coli BL21(lambda DE3); His-tag removed with thrombin
Experiment: TLC hydrolysis assay (PEI-cellulose)
Assay type: biochemical
Conditions: 5 mM substrate, pH 8.0, 37°C, 250 mM NaCl, 14 mM MgCl2, 6.5 mM MnCl2

T1 sequence (Q8N4P3 whole entry): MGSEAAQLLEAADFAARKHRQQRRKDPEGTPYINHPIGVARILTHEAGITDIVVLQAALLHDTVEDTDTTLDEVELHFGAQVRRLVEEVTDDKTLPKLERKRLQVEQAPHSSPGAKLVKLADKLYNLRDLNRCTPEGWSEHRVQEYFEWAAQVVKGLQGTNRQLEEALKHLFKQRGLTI

Compound | TLC hydrolysis assay (PEI-cellulose)
Nc1ncnc2c1ncn2[C@@H]1O[C@H](COP(=O)(O)OP(=O)(O)O)[C@@H](OP(=O)(O)OP(=O)(O)O)[C@H]1O [ppApp] | The human MESH1 hydrolase displays similar activities as shown for Drosophila Mesh1
Nc1ncnc2c1ncn2[C@@H]1O[C@H](COP(=O)(O)OP(=O)(O)OP(=O)(O)O)[C@@H](OP(=O)(O)OP(=O)(O)O)[C@H]1O [pppApp] | The human MESH1 hydrolase displays similar activities as shown for Drosophila Mesh1
